Results reported in patent publication US9040715B2 (priority 2008, dated 2015).

Experiments:
Assay type in all cases: cell-based
AVA5 cells = assay: Cytotoxicity by neutral red dye uptake after 3 days of treatment
Protocol: (§1) The antiviral activity of Compounds I-8 and I-9 was assessed in a 3-day assay using the stably-expressing HCV replicon cell lines, AVA5 (sub-genomic CONI, genotype 1b) and APC103 (genomic H77, genotype la) maintained as sub -confluent cultures on 96-well plates. Antiviral activity was determined by blot hybridization analysis of intracellular HCV RNA (normalized to the level of cellular B-actin RNA in each culture sample). A 3-fold suppression of HCV RNA and less than 2-fold suppression of cellular B-actin RNA was used as the cutoff. Cytotoxicity was assessed by neutral red dye uptake after 3 days of treatment. Dose response inhibition of HCV was also determined (FIG. 6). The nucleoside analogue 2′C-methyl cytidine (2′CmeC) was used as an assay activity control. EC50, EC90 and CC50 values (+/− standard deviations [S.D.]) were calculated by linear regression analysis. EC50 and EC90 are drug concentrations at which a 2-fold, or a 10-fold depression of intracellular HBV DNA or HCV RNA (relative to the average levels in untreated cultures), respectively, was observed. CC50 is the drug concentration at which a 2-fold lower level of neutral red dye uptake (relative to the average levels in untreated cultures) was observed.

APC103 cells = assay: as above
Protocol: as §1

[1] = system: HCV replicon cell line AVA5 (sub-genomic CONI, genotype 1b); assay: Anti-HCV activity, 3-day HCV replicon assay, blot hybridization of intracellular HCV RNA; details: AVA5
Protocol: as §1

[2] = system: HCV replicon cell line APC103 (genomic H77, genotype la); assay: as above; details: APC103
Protocol: as §1

Compound: C[C@@]1(O)[C@H](O)[C@@H](CO)O[C@H]1n1ccc(N)nc1=O [2′CmeC, 2′C-methyl cytidine, reference compound]
- CC50 (AVA5 cells): > 300 µM
- CC50 (APC103 cells): > 300 µM
- SI (CC50/EC50) [1]: >150
- EC50 ([1]; 2-fold depression of intracellular HCV RNA): 2 ± 0.1 µM
- EC90 ([1]; 10-fold depression of intracellular HCV RNA, read-out: EC90 (μM ± SD)): 2.2 ± 0.2 µM
- SI (CC50/EC50) [2]: >136
- EC50 ([2]; 2-fold depression of intracellular HCV RNA, read-out: EC50 (μM ± SD)): 5.8 ± 0.4 µM
- EC90 ([2]; 10-fold depression of intracellular HCV RNA): 6.4 ± 0.6 µM
